Target: T1, Pf2001Δ60 (recombinant thermostable lipase Pf2001) (Pyrococcus furiosus, UniProt Q8TZJ1)
T1 construct: expressed in E. coli BL21 (DE3) pLysS; crude extract supernatant
Assay: fluorescence release of 4-methylumbelliferone (ex […] nm, em […] nm)
Assay type: biochemical
Conditions: crude extract of E. coli expressing the enzyme; pH 7.0, 50 mM sodium phosphate, 0.1% gum arabic, 70 °C; soluble enzyme (also measured immobilised)

T1 sequence (Q8TZJ1 entry or part of it, stated change not applied): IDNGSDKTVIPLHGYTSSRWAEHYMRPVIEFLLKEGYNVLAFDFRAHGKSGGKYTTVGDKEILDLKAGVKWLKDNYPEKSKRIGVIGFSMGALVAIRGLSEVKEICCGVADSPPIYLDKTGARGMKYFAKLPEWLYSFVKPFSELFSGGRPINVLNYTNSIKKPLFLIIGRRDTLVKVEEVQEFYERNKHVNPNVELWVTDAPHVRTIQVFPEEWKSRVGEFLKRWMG

Q: Which “fluorescence release of 4-methylumbelliferone (ex 323 nm, em 448 nm)” value does the source give for `CCCCCCC(=O)Oc1ccc2c(C)cc(=O)oc2c1` [4-Methylumbelliferyl-heptanoate] here?
A: The value was “Enzyme activity was measured according to the method described by Prim et al”.
